Measured values as given in US11345712B2, “Protein-targeting compounds and pharmaceutical compositions thereof, and their therapeutic applications” (BioTheryX, Inc., priority 2019, dated 2022).

System: MOLM-13 cells
Assay: MOLM-13 cell viability assay (CellTiter-Glo)
Type: cell-based
Conditions: Homo sapiens, MOLM-13, 72 h, 3 days, concentration of 1 μM, read-out: Antiproliferative Activity (inhibition, MOLM-13 cell viability)
Summary of the method: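 Luminescent ATP read-out (CellTiter-Glo, 10 min with shaking) after 3-day compound or DMSO exposure at 37° C, 5% CO2. Cells plated at 2,500/well in RPMI 1640 plus 10% FBS.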

Compound | cytotoxicity at 1 µM [%]
Cc1ccc(C(F)(F)C(=O)NCc2scc3c2CN(C2CCC(=O)NC2=O)C3=O)cc1Cl (stereo not drawn) [II-28, 2-(3-chloro-4-methylphenyl)-N-((5-(2,6-dioxopiperidin-3-yl)-4-oxo-5,6-dihydro-4H-thieno[3,4-c]pyrrol-1-yl)methyl)-2,2-difluoroacetamide] | < 25
CC(C)(C)c1ccc(C(C(=O)NCc2scc3c2CN(C2CCC(=O)NC2=O)C3=O)C(F)(F)F)cc1 (stereo not drawn) [II-147, 2-(4-(tert-butyl)phenyl)-N-((5-(2,6-dioxopiperidin-3-yl)-4-oxo-5,6-dihydro-4H-thieno[3,4-c]pyrrol-1-yl)methyl)-3,3,3-trifluoropropanamide] | < 25
NC(C(=O)NCc1scc2c1CN(C1CCC(=O)NC1=O)C2=O)c1ccc(O)cc1 (stereo not drawn) [II-113, 2-amino-N-((5-(2,6-dioxopiperidin-3-yl)-4-oxo-5,6-dihydro-4H-thieno[3,4-c]pyrrol-1-yl)methyl)-2-(4-hydroxyphenyl)acetamide] | < 25
CC(C)(C)c1ccc(C(=O)C(=O)NCc2scc3c2C(=O)N(C2CCC(=O)NC2=O)C3=O)cc1 (stereo not drawn) [Compound I-13, 2-(4-(tert-butyl)phenyl)-N-((5-(2,6-dioxopiperidin-3-yl)-4,6-dioxo-5,6-dihydro-4H-thieno[3,4-c]pyrrol-1-yl)methyl)-2-oxoacetamide] | < 25
COc1ccc(C(=O)C(=O)NCc2scc3c2CN(C2CCC(=O)NC2=O)C3=O)cc1 (stereo not drawn) [Compound I-11, 2-(4-methoxyphenyl)-N-((5-(2,6-dioxopiperidin-3-yl)-4-oxo-5,6-dihydro-4H-thieno[3,4-c]pyrrol-1-yl)methyl)-2-oxoacetamide] | < 25
CC(C)(C)c1cccc(C(=O)C(=O)NCc2ccc3c(c2)CN(C2CCC(=O)NC2=O)C3=O)c1 (stereo not drawn) [Compound I-33, 2-(3-(tert-butyl)phenyl)-N-((2-(2,6-dioxopiperidin-3-yl)-1-oxoisoindolin-5-yl)methyl)-2-oxoacetamide] | > 80
O=C1CCC(N2Cc3c(csc3CNC(=O)C(=O)c3ccccc3)C2=O)C(=O)N1 (stereo not drawn) [Compound I-8, 2-phenyl-N-((5-(2,6-dioxopiperidin-3-yl)-4-oxo-5,6-dihydro-4H-thieno[3,4-c]pyrrol-1-yl)methyl)-2-oxoacetamide] | < 25
Cc1ccc(C(C(=O)NCc2scc3c2CN(C2CCC(=O)NC2=O)C3=O)C(C)C)cc1Cl (stereo not drawn) [II-95, 2-(3-chloro-4-methylphenyl)-N-((5-(2,6-dioxopiperidin-3-yl)-4-oxo-5,6-dihydro-4H-thieno[3,4-c]pyrrol-1-yl)methyl)-3-methylbutanamide] | 25 to 50
O=C1CCC(N2Cc3c(CNC(=O)C(=O)c4ccc(C5CCNCC5)cc4)cccc3C2=O)C(=O)N1 (stereo not drawn) [Compound I-66, N-((2-(2,6-dioxopiperidin-3-yl)-1-oxoisoindolin-4-yl)methyl)-2-oxo-2-(4-(piperidin-4-yl)phenyl)acetamide] | < 25
CCC(C)c1ccc(C(=O)C(=O)NCc2scc3c2CN(C2CCC(=O)NC2=O)C3=O)cc1 (stereo not drawn) [Compound I-15, 2-(4-(sec-butyl)phenyl)-N-((5-(2,6-dioxopiperidin-3-yl)-4-oxo-5,6-dihydro-4H-thieno[3,4-c]pyrrol-1-yl)methyl)-2-oxoacetamide] | 25 to 50
CC(C)c1ccc(C(=O)C(=O)NCc2ccc3c(c2)CN(C2CCC(=O)NC2=O)C3=O)s1 (stereo not drawn) [Compound I-37, N-((2-(2,6-dioxopiperidin-3-yl)-1-oxoisoindolin-5-yl)methyl)-2-(5-isopropylthiophen-2-yl)-2-oxoacetamide] | > 80
Cc1cc(NC(=O)NCc2cc3c(s2)C(=O)N(C2CCC(=O)NC2=O)C3)ccc1N1CCOCC1 (stereo not drawn) [II-26, 1-((5-(2,6-dioxopiperidin-3-yl)-6-oxo-5,6-dihydro-4H-thieno[2,3-c]pyrrol-2-yl)methyl)-3-(3-methyl-4-morpholinophenyl)urea] | < 25
CC(C)c1ccc(C(=O)C(=O)NCc2scc3c2CN(C2CCC(=O)NC2=O)C3=O)cc1 (stereo not drawn) [Compound I-14, 2-(4-isopropylphenyl)-N-((5-(2,6-dioxopiperidin-3-yl)-4-oxo-5,6-dihydro-4H-thieno[3,4-c]pyrrol-1-yl)methyl)-2-oxoacetamide] | 25 to 50
O=C1CCC(N2Cc3c(csc3CNC(=O)NCc3c(Cl)cccc3Cl)C2=O)C(=O)N1 (stereo not drawn) [II-37, 1-(2,6-dichlorobenzyl)-3-((5-(2,6-dioxopiperidin-3-yl)-4-oxo-5,6-dihydro-4H-thieno[3,4-c]pyrrol-1-yl)methyl)urea] | > 80
O=C1CCC(N2Cc3cc(CNC(=O)Nc4c(Cl)cccc4Cl)sc3C2=O)C(=O)N1 (stereo not drawn) [II-42, 1-(2,6-dichlorophenyl)-3-((5-(2,6-dioxopiperidin-3-yl)-6-oxo-5,6-dihydro-4H-thieno[2,3-c]pyrrol-2-yl)methyl)urea] | < 25
Cc1ccc(C(F)(F)C(=O)NCc2scc3c2CN([C@H]2CCCC(=O)NC2=O)C3=O)cc1Cl [II-29, (S)-2-(3-chloro-4-methylphenyl)-N-((5-(2,7-dioxoazepan-3-yl)-4-oxo-5,6-dihydro-4H-thieno[3,4-c]pyrrol-1-yl)methyl)-2,2-difluoroacetamide] | < 25
O=C1CCC(N2Cc3cc(CNC(=O)C(F)(F)c4ccc(C5(C(F)(F)F)CC5)cc4)ccc3C2=O)C(=O)N1 (stereo not drawn) [II-164, N-((2-(2,6-dioxopiperidin-3-yl)-1-oxoisoindolin-5-yl)methyl)-2,2-difluoro-2-(4-(1-(trifluoromethyl)cyclopropyl)phenyl)acetamide] | > 80
CC(C)(C)c1ccc(NC(=O)NCc2scc3c2CN(C2CCC(=O)NC2=O)C3=O)cc1 (stereo not drawn) [II-148, 1-(4-(tert-butyl)phenyl)-3-((5-(2,6-dioxopiperidin-3-yl)-4-oxo-5,6-dihydro-4H-thieno[3,4-c]pyrrol-1-yl)methyl)urea] | > 80
CN(C)c1cc(NC(=O)NCc2cc3c(s2)C(=O)N(C2CCC(=O)NC2=O)C3)ccc1F (stereo not drawn) [II-45, 1-(3-(dimethylamino)-4-fluorophenyl)-3-((5-(2,6-dioxopiperidin-3-yl)-6-oxo-5,6-dihydro-4H-thieno[2,3-c]pyrrol-2-yl)methyl)urea] | > 80
Cc1ccc(C(F)(F)C(=O)NCc2cc3c(s2)C(=O)N(C2CCC(=O)NC2=O)C3)cc1Cl (stereo not drawn) [II-38, 2-(3-chloro-4-methylphenyl)-N-((5-(2,6-dioxopiperidin-3-yl)-6-oxo-5,6-dihydro-4H-thieno[2,3-c]pyrrol-2-yl)methyl)-2,2-difluoroacetamide] | < 25
Cc1ccc(CC(=O)NCc2scc3c2CN(C2CCC(=O)NC2=O)C3=O)cc1Cl (stereo not drawn) [II-24, 2-(3-chloro-4-methylphenyl)-N-((5-(2,6-dioxopiperidin-3-yl)-4-oxo-5,6-dihydro-4H-thieno[3,4-c]pyrrol-1-yl)methyl)acetamide] | < 25
CC(C)(C)c1ccc(C(=O)C(=O)NCc2cccc3c2CN(C2CCC(=O)NC2=O)C3=O)cc1 (stereo not drawn) [Compound I-28, 2-(4-(tert-butyl)phenyl)-N-((2-(2,6-dioxopiperidin-3-yl)-1-oxoisoindolin-4-yl)methyl)-2-oxoacetamide] | > 80
O=C1CCC(N2C(=O)c3cccc(CNC(=O)C(=O)c4ccc(C5(C(F)(F)F)CC5)cc4)c3C2=O)C(=O)N1 (stereo not drawn) [Compound I-58, N-((2-(2,6-dioxopiperidin-3-yl)-1,3-dioxoisoindolin-4-yl)methyl)-2-oxo-2-(4-(1-(trifluoromethyl)cyclopropyl)phenyl)acetamide] | 50 to 80
O=C(/C=C/c1ccc(C2(C(F)(F)F)CC2)cc1)NCc1ccc2c(c1)CN(C1CCC(=O)NC1=O)C2=O (stereo not drawn) [II-149, (E)-N-((2-(2,6-dioxopiperidin-3-yl)-1-oxoisoindolin-5-yl)methyl)-3-(4-(1-(trifluoromethyl)cyclopropyl)phenyl)acrylamide] | > 80
CC(C)[C@@H](N)C(=O)OCN1C(=O)CCC(N2Cc3c(CNC(=O)C(=O)c4ccc(C5(C(F)(F)F)CC5)cc4)cccc3C2=O)C1=O (stereo partly drawn) [Compound I-64, (2,6-dioxo-3-(1-oxo-4-((2-oxo-2-(4-(1-(trifluoromethyl)cyclopropyl)-phenyl)acetamido)methyl)isoindolin-2-yl)piperidin-1-yl)methyl D-valinate] | > 80
O=C1CCC(N2Cc3c(csc3CNC(=O)Nc3c(Cl)cccc3Cl)C2=O)C(=O)N1 (stereo not drawn) [II-43, 1-(2,6-dichlorophenyl)-3-((5-(2,6-dioxopiperidin-3-yl)-4-oxo-5,6-dihydro-4H-thieno[3,4-c]pyrrol-1-yl)methyl)urea] | 25 to 50
CC(C)(C)c1ccc(C(=O)C(=O)NCc2cc(F)cc3c2CN(C2CCC(=O)NC2=O)C3=O)cc1 (stereo not drawn) [Compound I-29, 2-(4-(tert-butyl)phenyl)-N-((2-(2,6-dioxopiperidin-3-yl)-6-fluoro-1-oxoisoindolin-4-yl)methyl)-2-oxoacetamide] | > 80
COc1cc(OC)c(C(=O)C(=O)NCc2ccc3c(c2)CN(C2CCC(=O)NC2=O)C3=O)c(OC)c1 (stereo not drawn) [Compound I-84, N-((2-(2,6-dioxopiperidin-3-yl)-1-oxoisoindolin-5-yl)methyl)-2-oxo-2-(2,4,6-trimethoxyphenyl)acetamide] | 25 to 50
Cc1ccc(C(=O)C(=O)NCc2scc3c2CN(C2CCC(=O)NC2=O)C3=O)cc1 (stereo not drawn) [Compound I-17, 2-(4-methylphenyl)-N-((5-(2,6-dioxopiperidin-3-yl)-4-oxo-5,6-dihydro-4H-thieno[3,4-c]pyrrol-1-yl)methyl)-2-oxoacetamide] | < 25
CC(C)(CO)c1ccc(C(=O)C(=O)NCc2scc3c2CN(C2CCC(=O)NC2=O)C3=O)cc1 (stereo not drawn) [Compound I-43, N-((5-(2,6-dioxopiperidin-3-yl)-4-oxo-5,6-dihydro-4H-thieno[3,4-c]pyrrol-1-yl)methyl)-2-(4-(1-hydroxy-2-methylpropan-2-yl)phenyl)-2-oxoacetamide] | < 25
